Measured values taken from PubChem BioAssay (NCI).
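Exposure lasted 48 hours, with cells grown in 96-well plates and compounds tested at five concentrations. GI50 = concentration required for 50% inhibition of growth. TGI is the concentration that stops growth completely.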

Assays:
Assay in all cases: NCI tumour cell line growth inhibition, 48 h
CAKI-1 renal = system: CAKI-1 renal
HT29 colon = system: HT29 colon
K-562 leukemia = system: K-562 leukemia
M14 melanoma = system: M14 melanoma
OVCAR-5 ovarian = system: OVCAR-5 ovarian
PC-3 prostate = system: PC-3 prostate
RXF 393 renal = system: RXF 393 renal
SN12C renal = system: SN12C renal
SNB-19 CNS = system: SNB-19 CNS
T-47D breast = system: T-47D breast

Compound | GI50 (CAKI-1 renal) [µM] | TGI (CAKI-1 renal) [µM] | GI50 (HT29 colon) [µM] | TGI (HT29 colon) [µM] | GI50 (K-562 leukemia) [µM] | TGI (K-562 leukemia) [µM] | GI50 (M14 melanoma) [µM] | TGI (M14 melanoma) [µM] | GI50 (OVCAR-5 ovarian) [µM] | TGI (OVCAR-5 ovarian) [µM] | GI50 (PC-3 prostate) [µM] | TGI (PC-3 prostate) [µM] | GI50 (RXF 393 renal) [µM] | TGI (RXF 393 renal) [µM] | GI50 (SN12C renal) [µM] | TGI (SN12C renal) [µM] | GI50 (SNB-19 CNS) [µM] | TGI (SNB-19 CNS) [µM] | GI50 (T-47D breast) [µM] | TGI (T-47D breast) [µM]
CC(CN1CCN(C)CC1)CN1c2ccccc2Sc2ccc(C(F)(F)F)cc21 (stereo unspecified) | 2.6 | 11 | 1.8 | 3.27 | 1.76 | 4.21 | 1.75 | 3.25 | 1.53 | 3.13 | 2.09 | 5.21 | 1.64 | 3.03 | 4.07 | 14.5 | 2.08 | 4.32 | 1.89 | 4.55
C=C(C)C(=O)OC1CC2=CC(CC3(C)OC3C3OC(=O)C(=C)C13)OC2=O (stereo unspecified) | – | 12.7 | – | 17.3 | 2.62 | 9.8 | – | 15.4 | – | 34.6 | – | 28.1 | – | 9.37 | – | 26.8 | – | 33.9 | – | 22.6
CN(c1ccc(NC(=O)Nc2ccc(OC(F)(F)F)cc2)cc1)c1ccnc(Nc2cccc(S(N)(=O)=O)c2)n1 | 6.45 | 20.8 | 1.35 | 5.95 | 0.0874 | 4.31 | 3.39 | 8.03 | 5.47 | 13.7 | 1.45 | 5.72 | 2.13 | 6.04 | 2.27 | 11.5 | 5.49 | 14.3 | 3.51 | 9.35
CC(=O)Nc1ccccc1C=C1c2ccccc2-c2ccccc21 | – | > 100 | – | > 100 | – | > 100 | – | > 100 | – | > 100 | – | > 100 | – | 42.3 | – | 53.6 | – | 45.8 | – | > 100
N=c1c2c(-c3ccccc3)c(-c3ccccc3)n(Cc3ccccc3)c2ncn1CCCO | 0.692 | 6.57 | 0.363 | 3.77 | 0.959 | 7.6 | 2 | 6.54 | 7.27 | 23.4 | 1.62 | 12.2 | 0.443 | 2.5 | 1.99 | 19.6 | 2.21 | 21.3 | 3.13 | 18.1
COC(=O)c1cc(-c2cc(OC)c(OC)c(OC)c2)[nH]c1N/N=C/c1c(Cl)cccc1Cl | 1.61 | 11.4 | 3.18 | > 82.4 | – | > 100 | 8.6 | 40.1 | 2.25 | 13.4 | 0.893 | – | 7.45 | 31.4 | 3.3 | > 74.3 | 3.37 | 21.4 | 1.92 | 6.29
C[C@H]1[C@H](C)CC[C@]2(C(=O)N3CCN(C)CC3)CC[C@]3(C)C(=CC[C@@H]4[C@@]5(C)C/C(=C/c6cccnc6)C(=O)C(C)(C)[C@@H]5CC[C@]43C)[C@H]12 | 1.22 | 2.46 | 0.926 | 2.67 | 1.67 | > 100 | 0.802 | 2.3 | 1.55 | 2.91 | 0.541 | 1.85 | 1.24 | 2.55 | 1.15 | 2.65 | 0.956 | 2.23 | 0.511 | 2.16
NC(=O)c1oc([N+](=O)[O-])c(-c2ccccc2)c1-c1ccccc1 | – | 48.1 | – | > 100 | – | 59.6 | – | 32.5 | – | 63.2 | – | 47.9 | – | > 100 | – | 5.09 | – | > 100 | – | 50.3
CC(C)(O)C1CCC(Nc2ccc3ncc(-c4cccc(C(F)(F)F)c4)n3n2)CC1 (stereo unspecified) | 1.67 | 7.16 | 2.23 | 12 | 2.27 | 11.9 | 1.23 | 4.49 | 2.92 | > 100 | 0.815 | 12.7 | 1.11 | 2.81 | 3.17 | 17 | 4.36 | 21.8 | 1.5 | 5.13
C[C@]12CC[C@@H]3c4ccc(O)cc4CC[C@H]3[C@@H]1CC[C@@H]2NS(=O)(=O)c1cccc(C(F)(F)F)c1 | 3.23 | 11.8 | 3.39 | 10.2 | 3.63 | 15.3 | 3.88 | 13.9 | 4.54 | 17.4 | 2.78 | 13.9 | 2.58 | 6.65 | 2.19 | 5.97 | 4.64 | 18.2 | 3.65 | 13.4
Nc1ncnc2c1ncn2CC(O)C(=O)O (stereo unspecified) | – | > 100 | – | > 100 | – | > 100 | – | > 100 | – | > 100 | – | > 100 | – | > 100 | – | > 100 | – | > 100 | – | > 100
NC1=C(Br)C(=O)c2ncccc2C1=O | – | 2.84 | – | 4.3 | – | 1.01 | – | 2.03 | – | 3.49 | 1.65 | 9.64 | – | 1.32 | – | 2.1 | – | 2.41 | 1.69 | 4.1
C/C([O-])=C1\Cc2ccccc2C1=O.C/C([O-])=C1\Cc2ccccc2C1=O.CC[O-].CC[O-].[Ti+4] | 36.5 | > 100 | 31.9 | > 100 | 20.3 | > 78.6 | 16.8 | 42.3 | 30.5 | 72.9 | 22 | 71.7 | 7.3 | 21.9 | 21.5 | > 81.6 | 17.4 | 38.5 | 15.5 | 92.4
CC(C)C[C@H](NC(=O)[C@H]1O[C@@H]1C(=O)O)C(=O)NCCc1ccc(O)cc1 | > 100 | > 100 | > 100 | > 100 | > 100 | > 100 | > 100 | > 100 | > 100 | > 100 | > 100 | > 100 | > 100 | > 100 | > 100 | > 100 | > 100 | > 100 | > 100 | > 100
